In ChEMBL document CHEMBL5576054, “Lead compound profiling for small molecule inhibitors of the REV1-CT/RIR Translesion synthesis Protein-Protein interaction” (Bioorg Med Chem, 2024):
≈ marks a conversion by molar mass, not a printed value. Each block holds one compound with its values, some of them ahead of it. Calls of active or inactive are those of the source. No cut-off for these calls is given here.

What was measured:
[1] = system: A549; assay: Inhibition of cologenic survival in human A549 cells incubated for 8 to 10 days by crystal violet staining based analysis; assay type: functional, cell-based; details: time 8-10 day
[2] = Disruption of C-terminal REV-1/FAM-tagged Pol kappa RIR (unknown origin) interaction incubated for 1 hr by FP assay; design: species or system Homo sapiens
[3] = Metabolic stability in human liver microsomes assessed as half life at 1 uM incubated upto 60 mins by LC-MS/MS analysis; assay type: ADME, Microsome; details: 1 h
[4] = Metabolic stability in human liver microsomes assessed as intrinsic clearance at 1 uM incubated upto 60 mins by LC-MS/MS analysis; assay type: ADME, Microsome; details: 1 h
[5] = Solubility of compound in PBS at pH 4; assay type: physicochemical; details: buffer
[6] = Solubility of compound in PBS at pH 7.4; assay type: physicochemical
[7] = biological target: T1, DNA repair protein REV1 (Homo sapiens, UniProt Q9UBZ9); assay: Binding affinity to C-terminal human REV-1 assessed as dissociation constant incubated for 30 mins by MST assay
T1 sequence (Q9UBZ9 whole entry): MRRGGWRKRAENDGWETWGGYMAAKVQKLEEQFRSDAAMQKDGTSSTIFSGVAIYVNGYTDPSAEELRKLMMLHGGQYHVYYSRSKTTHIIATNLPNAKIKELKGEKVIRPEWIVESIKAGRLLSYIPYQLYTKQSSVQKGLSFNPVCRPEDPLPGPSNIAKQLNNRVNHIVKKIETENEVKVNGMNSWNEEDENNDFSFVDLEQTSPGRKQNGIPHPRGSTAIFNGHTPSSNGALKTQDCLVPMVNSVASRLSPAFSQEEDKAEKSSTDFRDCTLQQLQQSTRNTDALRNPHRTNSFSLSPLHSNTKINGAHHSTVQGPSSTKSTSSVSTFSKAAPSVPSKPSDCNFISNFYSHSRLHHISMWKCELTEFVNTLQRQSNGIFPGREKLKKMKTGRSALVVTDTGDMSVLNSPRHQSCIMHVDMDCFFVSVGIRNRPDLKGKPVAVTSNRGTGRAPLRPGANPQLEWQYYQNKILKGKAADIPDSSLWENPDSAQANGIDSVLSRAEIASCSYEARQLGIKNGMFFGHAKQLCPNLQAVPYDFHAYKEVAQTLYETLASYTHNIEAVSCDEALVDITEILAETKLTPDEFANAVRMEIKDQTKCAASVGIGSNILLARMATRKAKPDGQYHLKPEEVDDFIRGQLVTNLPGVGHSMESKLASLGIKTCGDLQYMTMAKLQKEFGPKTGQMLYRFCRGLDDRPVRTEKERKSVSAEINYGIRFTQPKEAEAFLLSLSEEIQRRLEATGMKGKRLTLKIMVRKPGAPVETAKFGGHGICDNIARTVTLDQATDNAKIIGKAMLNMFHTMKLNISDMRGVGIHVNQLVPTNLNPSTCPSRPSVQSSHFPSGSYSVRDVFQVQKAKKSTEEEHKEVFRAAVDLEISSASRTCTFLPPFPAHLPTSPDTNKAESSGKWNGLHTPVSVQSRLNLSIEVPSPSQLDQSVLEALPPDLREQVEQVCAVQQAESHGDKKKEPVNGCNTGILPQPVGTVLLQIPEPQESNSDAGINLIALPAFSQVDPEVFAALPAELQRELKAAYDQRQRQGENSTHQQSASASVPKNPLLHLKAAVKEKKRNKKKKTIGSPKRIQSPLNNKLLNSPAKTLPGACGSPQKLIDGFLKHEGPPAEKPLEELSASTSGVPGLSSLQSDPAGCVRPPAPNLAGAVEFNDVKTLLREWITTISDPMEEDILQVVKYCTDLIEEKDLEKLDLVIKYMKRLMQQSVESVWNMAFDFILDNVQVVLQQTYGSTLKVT

SMILES: Cc1ccc(/N=N/c2ccc(N)nc2N)cc1C
inhibition [1]: Active

IC50 [2]: 6.2 µM
t1/2 [3]: 23.6 min
intrinsic clearance (CLint) [4]: 58.8 µL/min/mg
solubility [5]: 1.3 µM (≈ 0.519 µg/mL)
solubility [6]: 0.7 µM (≈ 0.28 µg/mL)
Kd [7]: > 200 µM
SMILES: COc1ccc(OC)c(-c2csc(N3CCN(C(=O)c4ccco4)CC3)n2)c1

SMILES: Cc1cc(C)c2nc(-c3ccncc3)cc(C(=O)NCCCn3ccnc3)c2c1
IC50 [2]: 6.7 µM
t1/2 [3]: 4.7 min
intrinsic clearance (CLint) [4]: 148 µL/min/mg
solubility [5]: 268 µM (≈ 103 µg/mL)
solubility [6]: 146 µM (≈ 56.3 µg/mL)
Kd [7]: > 200 µM

SMILES: CCCc1cc(C(=O)OCC)c(NC(=O)C2CCN(C(C)=O)CC2)s1
IC50 [2]: 2.9 µM

SMILES: CCCc1cc(C(=O)OCC)c(NC(=O)c2ccccc2)s1
IC50 [2]: 4.4 µM

IC50 [2]: > 100 µM
SMILES: CC(=O)N1CCC(C(=O)NCCc2cccs2)CC1

SMILES: CCCc1cc(C(=O)OCC)c(NC(=O)C2CCCNC2)s1 (stereo unspecified)
IC50 [2]: 1.2 µM

SMILES: C=CCOc1cccc(C(=O)Nc2sc(CCC)cc2C(=O)OCC)c1
IC50 [2]: 66.2 µM

t1/2 [3]: 3.4 min
intrinsic clearance (CLint) [4]: 202 µL/min/mg
solubility [5]: 45.5 µM (≈ 20.9 µg/mL)
solubility [6]: 177 µM (≈ 81.2 µg/mL)
SMILES: CC(=O)C(C)n1c(CN2CCN(c3cccc(Cl)c3)CC2)nc2c1c(=O)n(C)c(=O)n2C (stereo unspecified)

SMILES: CCCc1cc(C(=O)OCC)c(NC(=O)C2CCNCC2)s1
IC50 [2]: 3.8 µM

SMILES: CCCc1cc(C(=O)OCC)c(NC(=O)c2ccc(O)cc2)s1
IC50 [2]: 9.3 µM

t1/2 [3]: 49.9 min
intrinsic clearance (CLint) [4]: 27.8 µL/min/mg
solubility [5]: 11.7 µM (≈ 4.57 µg/mL)
solubility [6]: 10 µM (≈ 3.91 µg/mL)
SMILES: CCCCc1ccc(-n2nnc(C(=O)N(C)C3CCS(=O)(=O)C3)c2C)cc1 (stereo unspecified)

SMILES: CCCc1cc(C(=O)OCC)c(NC(=O)c2ccccc2O)s1
IC50 [2]: 16.7 µM

SMILES: C=CCOc1cc(OCC=C)cc(C(=O)Nc2sc(CCC)cc2C(=O)OCC)c1
IC50 [2]: 49.7 µM

SMILES: CCOC(=O)c1c(NC(=O)C2CCN(C(C)=O)CC2)sc2c1CCCC2
IC50 [2]: 5.8 µM
